Legend:
tau [1] = assay: Induction of tau hyperphosphorylation in rat hippocampal brain slices, immunoblot; type: cell-based
Description: Freshly prepared hippocampal brain slices from adult Long-Evans rats were incubated under oxygenation in a physiological buffer for 1 hr with increasing concentrations of okadaic acid. Slices were homogenized in an ice-cold stop buffer by brief ultrasonication, and supernatants were boiled and analyzed for heatstable tau proteins by immunoblotting with reference mAbs Tau-1, AT8, and PHF-1 (FIG. 4a), and AP422 (FIG. 4b).
Adult male Long-Evans rats were anesthesized with CO2 and decapitated. Brains were removed within 2 min and the hippocampus was dissected using a blunt spatula. Hippocampi were cut into […] slices using a Mcllwain tissue chopper and placed into ice-cold low Ca^2+ Krebs-Bicarbonate buffer (pH 7.0): 124 mM NaCl, 3.33 mM KCl, 0.01 mM Ca^2+, 1.25 mM KH2P04, 1.33 mM MgS04, 25.7 mM NaHCO3, 10 mM D-Glucose, 20 mM HEPES. 5-8 slices were placed into a tube with 5 ml of low Ca^2+ buffer and incubated for at least 30 min at 33-34° C. with water saturated oxygenation (95% O2, 5% CO2.). After 30 min the solution was replaced with a buffer containing a physiological level of Ca^2+ (1.3 mM) and incubated for an additional 30 min. […] Aliquots of heat-stable supernatants, normalized for protein content, were analyzed on 10% SDS-PAGE, followed by immunoblotting with mAbs AT8 (1:200) and AP422 (1:5,000). […]

tau [2] = assay: Tau hyperphosphorylation in vivo after intracerebral injection into nucleus basalis, immunoblot; conditions: rat nucleus basalis
Description: a) Analysis with mAbs Tau-1 and AT8. […] Brains were surgically removed, the nucleus basalis dissected and homogenized in ice-cold stop buffer after 30 to 360 min. Heatstable supernatants were immunoblotted with Tau-1, AT8, and Tau-1 after dephosphorylation on the blot for normalization purposes.
b) Relevant areas of immunoblots developed with ECL were scanned densitometrically and AT8 signals normalized to Tau-1 signals of phosphatase-treated blots. Results represent triplicate experiments, P values were determined by ANOVA.
c) Aliquots of extracts of vehicle and okadaic acid injected nuclei basali were immunoblotted with mAb AP422.
Male or female Long-Evans rats at approximately 3 to 4 months of age were housed in pairs with food and water available ad libidum. […] The tissue was held out of the operating field with forceps and the areas of injection were marked. Openings were made through the skull using a dentists drill and a number 5 carbide bur. […]
Heat-stable supernatants of triplicate experiments were analyzed by immunoblotting with AT8 (FIG. 5a) and AP422 (FIG. 5c). AT8 signals were quantitated after normalization to Tau-1 immunoreactivity on phosphatase-treated blots as described in example 3. […]

tau [3] = assay: Tau phosphorylation in rat brain after prolonged pentobarbital anesthesia, immunoblot of heat-stable extracts; conditions: rats, five hours after 65 mg/kg
Description: The animals at 5 hrs after the first anesthesia had to be anethesized a second time, as they had regained full consciousness. […] Recovered brains were homogenized and supernatants processed for immunoblotting with AT8 and Tau-1 as before. To normalize signal intensity with phosphorylation-dependent mAbs to total amount of tau protein present in each extract (specific labelling) sister blots with a five-fold reduced load of extract protein were subjected to exhaustive dephosphorylation with calf intestinal alkaline phosphatase prior to staining with Tau-1. Blots were developed by ECL and relevant areas of the blots were scanned densitometrically. […]
A second dose of anesthetic was administered immediately prior to brain removal when excision occurred two hours or more after the first anesthesia. Cortices were processed and tau proteins analyzed by Western-blotting as in Example 2, using mAbs Tau-1 and AT8. To allow quantitative immunochemical evaluation of tau phosphorylation sister blots of all samples with a five-fold lower protein load were subjected to exhaustive dephosphorylation to provide a relative measure for total load of tau protein using Tau-1 staining. […] Signals were captured on KODAK X-OMAT scientific imaging film and quantitated by densitometric scanning and image analysis with NIH image 1.44. […]

Row | Structure (SMILES) | tau hyperphosphorylation detected with AT8 (tau [1]; freshly prepared rat brain slices) | AP422 reactivity of tau (tau [1]; rat hippocampal brain slices, increasing concentrations) | specific effect on normalized AT8 signal (tau [2]; 30 to 360 min after injection) | in vivo tau hyperphosphorylation detected with AP422 (tau [2]; individual animals) | autonomous signs after regaining consciousness (tau [3])
1 | C=C1[C@@H](O)[C@@H]2O[C@]3(CC[C@H](/C=C/[C@@H](C)[C@@H]4CC(C)=C[C@@]5(O[C@H](C[C@@](C)(O)C(=O)O)CC[C@H]5O)O4)O3)CC[C@H]2O[C@@H]1[C@@H](O)C[C@H](C)[C@H]1O[C@@]2(CCCCO2)CC[C@H]1C [okadaic acid] | tau hyperphosphorylation induced | induced | impossible to discern | does not always occur | –
2 | CCCC(C)C1(CC)C(=O)NC(=O)NC1=O (centres unmarked) [pentobarbital] | – | – | – | – | no abnormal autonomous signs
